Experimental data as given in patent US20240374573A1, “IMIDAZOLE CONTAINING COMPOUNDS, DERIVATIVES THEREFORE, AND USES THEREOF” (AglaeaPharma Inc., priority 2023, published 2024).

These molecules were tested against T1, α2AAR (Homo sapiens, UniProt P08913) (assay: α2AAR binding assay ([3H]-RX 821002 radioligand)). Conditions: [3H]-RX 821002 0.5 nM, HEK293 membranes; read-out: α2A affinity (Ki).
T1 construct: host or cells: HEK293 (membranes)
T1 sequence (P08913 1-465): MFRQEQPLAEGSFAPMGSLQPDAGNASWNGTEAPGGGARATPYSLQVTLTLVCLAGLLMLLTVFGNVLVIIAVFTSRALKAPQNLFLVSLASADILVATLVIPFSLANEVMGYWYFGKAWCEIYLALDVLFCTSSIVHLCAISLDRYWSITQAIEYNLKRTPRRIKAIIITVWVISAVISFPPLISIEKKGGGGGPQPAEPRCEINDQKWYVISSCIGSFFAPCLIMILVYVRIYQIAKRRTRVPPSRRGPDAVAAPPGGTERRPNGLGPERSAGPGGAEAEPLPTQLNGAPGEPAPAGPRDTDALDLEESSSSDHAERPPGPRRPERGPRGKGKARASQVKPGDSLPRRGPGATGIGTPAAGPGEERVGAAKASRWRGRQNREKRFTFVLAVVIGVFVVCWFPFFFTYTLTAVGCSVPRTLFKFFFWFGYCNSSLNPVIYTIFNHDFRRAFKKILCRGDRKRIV
Description: The α2AR Binding Assay was conducted using a stable HEK293 cell line, specifically constructed by WuXi AppTec for targeting α2AAR. […] Both the assay and wash buffers consist of 50 mM Tris-HCl at a pH of 7.4 (Tris base, Sigma, T1503-1 KG).
The procedure initiated with the preparation of test compounds and a reference compound, yohimbine (Sigma, Y3125), through an 8-point 4-fold serial dilution, transferring 1 μL of each to the assay plate. […] After scaling, the plates were agitated at room temperature for one hour. Subsequently, the Unifilter-96 GF/C filter plates were pre-soaked with 0.3% PEI (Sigma, P3143) for at least half an hour. The reaction mixtures were then filtered and washed four times with cold wash buffer using a Perkin Elmer Cell harvester. Post-filtration, the plates were dried at 50° C. for one hour. […] The top of the plates was then sealed with TopSeal-A sealing film. The trapped 3H was quantified using a Perkin Elmer MicroBeta2 Reader. […] Finally, the data were analyzed with Prism 5.0 software, employing the “log (inhibitor) vs. response-Variable slope” model for data fitting. This comprehensive process ensured precise assessment of the binding affinity of compounds to the α2AAR.

Row | SMILES | Ki [nM]
1 | Cc1cccc(C(c2c[nH]cn2)c2cccc(C(N)=O)c2F)c1C (single isomer, unassigned) [45-A] | > 1000
2 | Cc1cccc(C(c2cccc(C(=O)NCC3CCOCC3)c2)c2c[nH]cn2)c1C (single isomer, unassigned) [98-A] | 250 to 1000
3 | Cc1cccc(C(Cc2cccc(NS(=O)(=O)CC3CCOCC3)c2)c2c[nH]cn2)c1C (single isomer, unassigned) [112-A] | 250 to 1000
4 | Cc1cccc(C(c2c[nH]cn2)c2cccc(C(=O)NCC3CCOCC3)c2F)c1C (single isomer, unassigned) [124-A] | 250 to 1000
5 | Cc1cccc(C(Cc2ccc(C(N)=O)c(F)c2)c2c[nH]cn2)c1C (single isomer, unassigned) [156-A] | > 1000
6 | Cc1cccc(C(Cc2ccc(C(=O)O)cc2)c2c[nH]cn2)c1C (single isomer, unassigned) [175-A] | > 1000
7 | Cc1cccc(C(OCCOCCNS(C)(=O)=O)c2c[nH]cn2)c1C (stereo not shown) [compound 40] | > 1000
8 | Cc1cccc(C(c2c[nH]cn2)c2cccc(NC(=O)CC#N)c2F)c1C (stereo not shown) [compound 41] | 50 to 250
9 | CONC(=O)c1cccc(C(c2ccccc2)c2c[nH]cn2)c1 (stereo not shown) [compound 49] | > 1000
10 | CONC(=O)c1cc(C(c2c[nH]cn2)c2cccc(C)c2C)ccc1F (stereo not shown) [compound 53] | 250 to 1000
11 | Cc1cccc(C(c2c[nH]cn2)c2ccnc(C(N)=O)c2F)c1C (stereo not shown) [compound 58] | 50 to 250
12 | Cc1cccc(C(c2c[nH]cn2)C2CCCC(C(=O)O)C2)c1C (stereo not shown) [compound 60] | 250 to 1000
13 | Cc1cccc(C(c2cccc(C#N)c2)c2c[nH]cn2)c1C (stereo not shown) [compound 68] | 50 to 250
14 | CS(=O)(=O)Nc1cccc(C(c2c[nH]cn2)c2c(F)cccc2Cl)c1 (stereo not shown) [compound 78] | 250 to 1000
15 | Cc1cccc(C(c2cccc(NC(=O)CCN3CCN(C)CC3)c2)c2c[nH]cn2)c1C (stereo not shown) [compound 82] | > 1000
16 | Cc1cccc(C(c2cccc(C(=O)NOCCN3CCOCC3)c2)c2c[nH]cn2)c1C (stereo not shown) [compound 91] | 50 to 250
17 | Cc1cccc(C(c2c[nH]cn2)C2CCCC(C(N)=O)C2)c1C (stereo not shown) [compound 92] | > 1000
18 | Cc1cccc(C(CCOCCOCCNS(C)(=O)=O)c2c[nH]cn2)c1C (stereo not shown) [compound 93] | 250 to 1000
19 | Cc1cccc(C(c2c[nH]cn2)N2CCc3ccc(NS(C)(=O)=O)cc32)c1C (stereo not shown) [compound 106] | 50 to 250
20 | Cc1cccc(C(c2cccc(NC(=O)CN3CCNCC3)c2)c2c[nH]cn2)c1C (stereo not shown) [compound 107] | 50 to 250
21 | Cc1c(F)cccc1C(c1cccc(NC(=O)CC2CCOCC2)c1)c1c[nH]cn1 (stereo not shown) [compound 113] | 50 to 250
22 | Cc1cccc(C(c2cccc(CN3CCCCC3)c2)c2c[nH]cn2)c1C (stereo not shown) [compound 114] | > 1000
23 | Cc1cccc(C(c2cccc(CCN3CCC(O)CC3)c2)c2c[nH]cn2)c1C (stereo not shown) [compound 125] | 10 to 50
24 | COc1ccccc1C(c1cccc(NC(=O)CC2CCOCC2)c1)c1c[nH]cn1 (stereo not shown) [compound 132] | 50 to 250
25 | CONC(=O)c1cc(C(c2c[nH]cn2)c2cccc(C)c2C)cs1 (stereo not shown) [compound 182] | 50 to 250
26 | Cc1cccc(C(CC23CC4CC(C2)CC(C(N)=O)(C4)C3)c2c[nH]cn2)c1C (stereo not shown) [compound 188] | > 1000
27 | Cc1cccc(C(CCCCNS(C)(=O)=O)c2c[nH]cn2)c1C (stereo not shown) [compound 191] | 50 to 250
28 | Cc1cccc(C(Cc2ccc(P(=O)(O)O)cc2)c2c[nH]cn2)c1C (stereo not shown) [compound 199] | > 1000
29 | Cc1cccc(C(Cc2ccc(C(N)=O)nc2)c2c[nH]cn2)c1C (stereo not shown) [compound 238] | 50 to 250
30 | Cc1cccc(C(CCCCCC(N)=O)c2c[nH]cn2)c1C (stereo not shown) [compound 240] | 250 to 1000

Further lines, results first:

Row | Ki [nM] | SMILES
31 | > 1000 | Cc1cccc(C(c2cccc(NC(=O)CCC#N)c2)c2c[nH]cn2)c1C (single isomer, unassigned) [43-A]
32 | > 1000 | Cc1cccc(C(c2cccc(OCCNS(C)(=O)=O)c2)c2c[nH]cn2)c1C (single isomer, unassigned) [46-A]
33 | 50 to 250 | Cc1cccc(C(c2cccc(NC(=O)CCC(N)=O)c2)c2c[nH]cn2)c1C (stereo not shown) [compound 42]
34 | > 1000 | Cc1cccc(C(c2cccc(OCCC#N)c2)c2c[nH]cn2)c1C (stereo not shown) [compound 48]
35 | 250 to 1000 | Cc1cccc(C(c2ccnc(NS(C)(=O)=O)c2)c2c[nH]cn2)c1C (stereo not shown) [compound 57]
36 | 50 to 250 | COC(=O)Nc1cccc(C(c2c[nH]cn2)c2cccc(C)c2C)c1 (stereo not shown) [compound 62]
37 | 50 to 250 | CC(=O)NCc1cccc(C(c2c[nH]cn2)c2cccc(C)c2C)c1 (stereo not shown) [compound 65]
38 | 50 to 250 | Cc1cccc(C(c2cccc(CNS(C)(=O)=O)c2)c2c[nH]cn2)c1C (stereo not shown) [compound 69]
39 | 10 to 50 | Cc1cccc(C(c2cccc(N(C)S(C)(=O)=O)c2)c2c[nH]cn2)c1C (stereo not shown) [compound 71]
40 | 50 to 250 | Cc1c(F)cccc1C(c1cccc(NS(C)(=O)=O)c1)c1c[nH]cn1 (stereo not shown) [compound 75]
41 | 250 to 1000 | Cc1cccc(C(c2cccc(NS(=O)(=O)C(F)(F)F)c2)c2c[nH]cn2)c1C (stereo not shown) [compound 77]
42 | 50 to 250 | Cc1cccc(C(c2cccc(NCCNS(C)(=O)=O)c2)c2c[nH]cn2)c1C (stereo not shown) [compound 83]
43 | 50 to 250 | Cc1cccc(C(c2cccc(NC(=O)c3cn[nH]c3)c2)c2c[nH]cn2)c1C (stereo not shown) [compound 87]
44 | 50 to 250 | Cc1cccc(C(c2cccc(NC(=O)CN(C)C)c2)c2c[nH]cn2)c1C (stereo not shown) [compound 110]
45 | 250 to 1000 | Cc1c(CO)cccc1C(c1cccc(NS(C)(=O)=O)c1)c1c[nH]cn1 (stereo not shown) [compound 115]
46 | 10 to 50 | Cc1cccc(C(c2cccc(COCCNS(C)(=O)=O)c2)c2c[nH]cn2)c1C (stereo not shown) [compound 116]
47 | 10 to 50 | CNS(=O)(=O)Nc1cccc(C(c2c[nH]cn2)c2cccc(C)c2C)c1 (stereo not shown) [compound 127]
48 | 50 to 250 | CNC(=O)Nc1cccc(C(c2c[nH]cn2)c2cccc(C)c2C)c1 (stereo not shown) [compound 128]
49 | 50 to 250 | C=CC(=O)Nc1cccc(C(c2c[nH]cn2)c2cccc(C)c2C)c1 (stereo not shown) [compound 129]
50 | 10 to 50 | Cc1csc(CCS(=O)(=O)Nc2cccc(C(c3c[nH]cn3)c3cccc(C)c3C)c2)n1 (stereo not shown) [compound 131]
51 | 50 to 250 | COc1ccccc1C(c1cccc(NS(C)(=O)=O)c1)c1c[nH]cn1 (stereo not shown) [compound 135]
52 | 50 to 250 | CCc1ccccc1C(c1cccc(NS(C)(=O)=O)c1)c1c[nH]cn1 (stereo not shown) [compound 140]
53 | < 10 | Cc1cccc(C(Cc2cccc(NS(=O)(=O)CC3CCOCC3)c2)c2c[nH]cn2)c1C (stereo not shown) [compound 142]
54 | 50 to 250 | Cc1cccc(C(c2cccc(NC(=O)CC[N+](C)(C)C)c2)c2c[nH]cn2)c1C (stereo not shown) [compound 144]
55 | 250 to 1000 | Cc1cccc(C(CCc2ccccc2NS(C)(=O)=O)c2c[nH]cn2)c1C (stereo not shown) [compound 183]
56 | 10 to 50 | Cc1cccc(C(c2cccc(NS(=O)(=O)CCc3cncnc3)c2)c2c[nH]cn2)c1C (stereo not shown) [compound 189]

Same assay, conditions: α2A affinity (Ki, nM)

Row | SMILES | Ki [nM]
57 | Cc1cccc(C(c2cnc[nH]2)C2CCc3ccc(O)cc32)c1C (single isomer, unassigned) [100-A] | < 10
58 | Cc1cccc(C(c2cnc[nH]2)C2CCc3ccc(O)cc32)c1C (single isomer, unassigned) [100-B] | 50 to 250
59 | Cc1cccc(C(COCCNS(C)(=O)=O)c2c[nH]cn2)c1C (stereo not shown) [compound 66] | 250 to 1000
60 | Cc1cccc(C(CCCNS(C)(=O)=O)c2c[nH]cn2)c1C (stereo not shown) [compound 184] | 250 to 1000
61 | Cc1cccc(C(CCCCCNS(C)(=O)=O)c2c[nH]cn2)c1C (stereo not shown) [compound 249] | 50 to 250
